Data set [1] deals with VIM-1 (Pseudomonas aeruginosa (strain ATCC 15692 / DSM 22644 / CIP 104116 / JCM 14847 / LMG 12228 / 1C / PRS 101 / PAO1), UniProt A0A0F7KYQ8). Put plainly: biochemical. The conditions noted are these: CCF2-FA fluorescence assay, 2 hours at 25° C.; read-out: VIM1 IC50. The gist of the method: (§1)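 Each enzyme (final 1 pM NDM-1, 2 pM IMP-1, 30 pM VIM-1) was incubated with test inhibitor (20 μM to 0.00063 μM) and 1.25 μM CCF2-FA for 2 hours at 25° C in zinc-supplemented phosphate buffer, pH 7. Fluorescence at 460 nm was then read and IC50 fitted with four parameters.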

Data set [2] deals with IMP-1 (Serratia marcescens, UniProt P52699). Put plainly: biochemical. The conditions noted are these: CCF2-FA fluorescence assay, 2 hours at 25° C.; read-out: IMP1 IC50. The procedure, abridged:
as §1

The test system of data set [3] is P. aeruginosa MB9798 (efflux+, IMP-1 plasmid). The note with it: for MB9798 MITC95 P. aeruginosa uM Efflux WT: efflux + (MB9798) strain, imipenem at 2 μg/mL, in the presence of a class A, C, D serine β-lactamase inhibitor closely related to relebactam; for Efflux ratio: fold difference between efflux+ (MB9798) and efflux− (MB9799) strains. The gist of the method: (§2)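 Isogenic P. aeruginosa PAO1 strains (efflux+ and multiple-efflux-pump-disrupted) carrying plasmid IMP-1, with inducible AmpC, tested by broth microdilution. Imipenem and/or ceftazidime fixed, usually at CLSI breakpoint, plus fixed class A/C β-lactamase inhibitor; titrated MBL inhibitor concentration restoring susceptibility recorded and compared between strains as efflux fold difference.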

For data set [4], the system named is Klebsiella pneumoniae expressing VIM-1 (IHMA599644). It is filed as cell-based. The conditions noted are these: with imipenem 1 μg/ml; 95% inhibition of bacterial growth. The gist of the method: (§3)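 Read-out is absorbance after 22–24 h at 35 °C, with MITC95 taken as the lowest inhibitor concentration that, alongside imipenem at 1 μg/ml, suppresses 95% of bacterial growth. Inocula came from saline-suspended colonies diluted 1:100 into 1.1× CAMHB.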

Data set [5] deals with Escherichia coli expressing NDM-1 (CLB30016). It is filed as cell-based. The note with it: with imipenem 1 μg/ml; 95% inhibition of bacterial growth. The procedure, abridged:
as §3

Data set [6] deals with Serratia marcescens expressing IMP-1 (CL5741). It is filed as cell-based. The note with it: with imipenem 1 μg/ml; 95% inhibition of bacterial growth. The gist of the method:
as §3

Data set [7] concerns the target VIM-2 (Escherichia coli, UniProt Q5U7L7). Put plainly: biochemical. The conditions noted are these: CCF2-FA fluorescence assay; read-out: VIM2 IC50.
The subject of data set [8] is P. aeruginosa MB9799 (efflux-, IMP-1 plasmid). It is filed as cell-based, Pseudomonas aeruginosa. The conditions noted are these: efflux − (MB9799) strain; imipenem at 2 μg/mL; in the presence of a class A, C, D serine β-lactamase inhibitor closely related to relebactam. The gist of the method:
as §2

Data set [9] deals with NDM-1 (Klebsiella pneumoniae, UniProt C7C422). Kind of data set: biochemical. The class given is biochemical. The conditions noted are these: CCF2-FA fluorescence assay, 2 hours at 25° C. The gist of the method: as §1

Each structure is given as a SMILES string.

Sequence of NDM-1 (C7C422 whole entry, looked up, species assumed): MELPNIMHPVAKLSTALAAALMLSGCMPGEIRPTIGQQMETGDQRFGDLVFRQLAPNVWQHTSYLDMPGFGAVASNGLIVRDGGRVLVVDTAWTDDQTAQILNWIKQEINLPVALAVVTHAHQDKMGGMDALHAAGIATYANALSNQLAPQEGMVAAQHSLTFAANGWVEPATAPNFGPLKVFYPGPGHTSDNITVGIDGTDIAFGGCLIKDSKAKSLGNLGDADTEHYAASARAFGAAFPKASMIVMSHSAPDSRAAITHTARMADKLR
Sequence of IMP-1 (P52699 whole entry, looked up, species assumed): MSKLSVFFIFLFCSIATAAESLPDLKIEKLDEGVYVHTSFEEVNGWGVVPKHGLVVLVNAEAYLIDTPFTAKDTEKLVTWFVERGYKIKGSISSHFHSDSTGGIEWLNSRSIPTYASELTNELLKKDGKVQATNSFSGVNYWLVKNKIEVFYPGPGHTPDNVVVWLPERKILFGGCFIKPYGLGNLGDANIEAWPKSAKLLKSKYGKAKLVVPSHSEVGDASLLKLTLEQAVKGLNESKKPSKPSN

Consider `NS(=O)(=O)c1c(S(=O)(=O)N[C@@H]2CCNC2)ccc(N2CCCN(CCO)CC2)c1-c1nnn[nH]1` [Example 69, 4-[4-(2-hydroxyethyl)-1,4-diazepan-1-yl]-N1-[(3R)-pyrrolidin-3-yl]-3-(1H-tetrazol-5-yl)benzene-1,2-disulfonamide], for which the half-maximal inhibitory concentration (IC50) in data set [1] stood at 1.6 nM; in data set [2] it was 29.6 nM; in [7], 13.3 nM; in data set [9] it was 16.2 nM. The “MB9798 MITC95 P. aeruginosa uM Efflux WT” value in data set [3] was determined as 12.50 µM. Besides, in [3], the Efflux ratio is recorded as 4.00. For the same compound, in [4], the “IHMA599644 K. pneumoniae MITC95 VIM” value came to 1.56 µM. Moreover, the “CLB30016 E. coli MITC95 NDM” value in data set [5] was 0.78 µM. The “CL5741 S. marcescens MITC95 IMP” value in data set [6] amounted to 3.13 µM. In addition, the “MB9799 MITC95 P. aeruginosa uM Efflux Mutant” value in [8] was 3.13 µM.
Regarding `NS(=O)(=O)c1c(S(=O)(=O)N[C@@H]2CCNC2)ccc(N2CC[C@@H](CO)C2)c1-c1nnn[nH]1` [Example 70, 4-[(3R)-3-(hydroxymethyl)pyrrolidin-1-yl]-N1-[(3R)-pyrrolidin-3-yl]-3-(1H-tetrazol-5-yl)benzene-1,2-disulfonamide], the 50% inhibitory concentration (IC50) was 0.57 nM in data set [1], 0.51 nM in data set [2], 1.25 nM in [7] and 0.45 nM in data set [9]. The “MB9798 MITC95 P. aeruginosa uM Efflux WT” value in [3] stood at 2.34 µM. Also, the Efflux ratio in [3] is given as 1.20. Further, the “IHMA599644 K. pneumoniae MITC95 VIM” value in [4] was 7.81 µM. Moreover, the “CLB30016 E. coli MITC95 NDM” value in [5] was 3.91 µM. Further, the “CL5741 S. marcescens MITC95 IMP” value in [6] came out at 3.91 µM. Besides, in data set [8], the “MB9799 MITC95 P. aeruginosa uM Efflux Mutant” value was 1.95 µM.
For the compound `CC1(O)CCN(c2ccc(S(=O)(=O)N[C@@H]3CCNC3)c(S(N)(=O)=O)c2-c2nnn[nH]2)CC1` [Example 71, 4-(4-hydroxy-4-methylpiperidin-1-yl)-N1-[(3R)-pyrrolidin-3-yl]-3-(1H-tetrazol-5-yl)benzene-1,2-disulfonamide], the IC50 is 0.53 nM in [1], 0.7 nM in [2], 1.69 nM in data set [7] and 0.26 nM in data set [9]. For the same compound, the “MB9798 MITC95 P. aeruginosa uM Efflux WT” value in [3] is 1.56 µM. Moreover, the Efflux ratio in data set [3] came out at 1.00. In addition, the “IHMA599644 K. pneumoniae MITC95 VIM” value in data set [4] is 6.25 µM. The “CLB30016 E. coli MITC95 NDM” value in [5] was determined as 3.13 µM. In data set [6], the “CL5741 S. marcescens MITC95 IMP” value turned out to be 3.13 µM. Also, in [8], the “MB9799 MITC95 P. aeruginosa uM Efflux Mutant” value is 1.56 µM.
Take `C[N+](C)(C)CCCCNc1ccc(S(=O)(=O)N[C@@H]2CCNC2)c(S(N)(=O)=O)c1-c1nnn[nH]1` [Example 72, N,N,N-trimethyl-4-({4-[(3R)-pyrrolidin-3-ylsulfamoyl]-3-sulfamoyl-2-(1H-tetrazol-5-yl)phenyl}amino)butan-1-aminium]: the IC50 was 2.01 nM in [1], 9.32 nM in data set [2], 6.04 nM in [7] and 3.31 nM in data set [9]. In addition, the “MB9798 MITC95 P. aeruginosa uM Efflux WT” value in data set [3] was determined as 25.00 µM. For the same compound, in data set [3], the Efflux ratio came out at 8.00. The “IHMA599644 K. pneumoniae MITC95 VIM” value in data set [4] came out at 6.25 µM. In addition, in [5], the “CLB30016 E. coli MITC95 NDM” value is 1.56 µM. The “CL5741 S. marcescens MITC95 IMP” value in data set [6] is 3.13 µM. In addition, the “MB9799 MITC95 P. aeruginosa uM Efflux Mutant” value in [8] turned out to be 3.13 µM.
Consider `NC1CCN(c2ccc(S(=O)(=O)N[C@@H]3CCNC3)c(S(N)(=O)=O)c2-c2nnn[nH]2)CC1` [Example 73, 4-(4-aminopiperidin-1-yl)-N1-[(3R)-pyrrolidin-3-yl]-3-(1H-tetrazol-5-yl)benzene-1,2-disulfonamide], for which the IC50 was found to be 0.31 nM in data set [1], 16.6 nM in [2], 16.1 nM in data set [7] and 9.84 nM in [9]. In addition, in [3], the “MB9798 MITC95 P. aeruginosa uM Efflux WT” value was 1.56 µM. The Efflux ratio in data set [3] is listed as 2.00. Further, the “IHMA599644 K. pneumoniae MITC95 VIM” value in data set [4] was 1.56 µM. Also, the “CLB30016 E. coli MITC95 NDM” value in [5] is 0.78 µM. For the same compound, the “CL5741 S. marcescens MITC95 IMP” value in data set [6] is 1.56 µM. Further, in [8], the “MB9799 MITC95 P. aeruginosa uM Efflux Mutant” value turned out to be 0.78 µM.
Turning to `CNCC1CCN(c2ccc(S(=O)(=O)N[C@@H]3CCNC3)c(S(N)(=O)=O)c2-c2nnn[nH]2)CC1` [Example 74, 4-{4-[(methylamino)methyl]piperidin-1-yl}-N1-[(3R)-pyrrolidin-3-yl]-3-(1H-tetrazol-5-yl)benzene-1,2-disulfonamide], the IC50 stood at 0.45 nM in data set [1], 6.8 nM in data set [2], 6.86 nM in data set [7] and 3 nM in [9]. For the same compound, the “MB9798 MITC95 P. aeruginosa uM Efflux WT” value in [3] is 1.56 µM. Besides, in [3], the Efflux ratio came to 2.00. Also, in data set [4], the “IHMA599644 K. pneumoniae MITC95 VIM” value was 3.13 µM. The “CLB30016 E. coli MITC95 NDM” value in [5] came out at 0.78 µM. In addition, the “CL5741 S. marcescens MITC95 IMP” value in data set [6] turned out to be 1.56 µM. Besides, the “MB9799 MITC95 P. aeruginosa uM Efflux Mutant” value in [8] is 0.78 µM.
Turning to `NS(=O)(=O)c1c(S(=O)(=O)N[C@@H]2CCNC2)ccc(NCCN2CCNCC2)c1-c1nnn[nH]1` [Example 75, 4-[(2-piperazin-1-ylethyl)amino]-N1-[(3R)-pyrrolidin-3-yl]-3-(1H-tetrazol-5-yl)benzene-1,2-disulfonamide], the IC50 worked out at 6.75 nM in data set [1], 178 nM in data set [2], 200 nM in data set [7] and 162 nM in [9]. Also, the “MB9798 MITC95 P. aeruginosa uM Efflux WT” value in data set [3] is 25.00 µM. Moreover, the Efflux ratio in [3] came to 8.00. In addition, the “IHMA599644 K. pneumoniae MITC95 VIM” value in [4] was determined as 3.13 µM. In addition, the “CLB30016 E. coli MITC95 NDM” value in data set [5] turned out to be 6.25 µM. In addition, in data set [6], the “CL5741 S. marcescens MITC95 IMP” value came out at 12.50 µM. Moreover, the “MB9799 MITC95 P. aeruginosa uM Efflux Mutant” value in data set [8] was 3.13 µM.
Take `NCCN1CCN(c2ccc(S(=O)(=O)N[C@@H]3CCNC3)c(S(N)(=O)=O)c2-c2nnn[nH]2)CC1` [Example 76, 4-[4-(2-aminoethyl)piperazin-1-yl]-N1-[(3R)-pyrrolidin-3-yl]-3-(1H-tetrazol-5-yl)benzene-1,2-disulfonamide]: the IC50 in [1] worked out at 1.6 nM; in data set [2] it was 10.7 nM; in data set [7] it was 18.1 nM; in [9], 4.35 nM. Further, the “MB9798 MITC95 P. aeruginosa uM Efflux WT” value in data set [3] was 1.56 µM. Also, the Efflux ratio in [3] is on record as 1.00. Moreover, in data set [4], the “IHMA599644 K. pneumoniae MITC95 VIM” value came out at 3.13 µM. Moreover, the “CLB30016 E. coli MITC95 NDM” value in data set [5] was 1.56 µM. For the same compound, in data set [6], the “CL5741 S. marcescens MITC95 IMP” value was found to be 3.13 µM. For the same compound, the “MB9799 MITC95 P. aeruginosa uM Efflux Mutant” value in data set [8] stood at 1.56 µM.
As to `NCC1CCN(c2ccc(S(=O)(=O)N[C@@H]3CCNC3)c(S(N)(=O)=O)c2-c2nnn[nH]2)CC1` [Example 77, 4-[4-(aminomethyl)piperidin-1-yl]-N1-[(3R)-pyrrolidin-3-yl]-3-(1H-tetrazol-5-yl)benzene-1,2-disulfonamide], the IC50 in [1] worked out at 0.11 nM; in [2], 1.83 nM; in data set [7] it was 1.8 nM; in data set [9] it was 0.53 nM. In addition, the “MB9798 MITC95 P. aeruginosa uM Efflux WT” value in data set [3] was determined as 0.78 µM. Also, in [3], the Efflux ratio is 2.00. In addition, the “IHMA599644 K. pneumoniae MITC95 VIM” value in data set [4] worked out at 0.78 µM. Further, the “CLB30016 E. coli MITC95 NDM” value in data set [5] came to 0.78 µM. Besides, in data set [6], the “CL5741 S. marcescens MITC95 IMP” value is 0.78 µM. In [8], the “MB9799 MITC95 P. aeruginosa uM Efflux Mutant” value amounted to 0.39 µM.
